Results: the NIST ThermoML archive (doi:10.1016/j.fluid.2007.12.007)
± gives the expanded uncertainty stated by the source.

Legend:
[1] = 101.33 kPa, Liquid
[2] = xn = mol fraction of the nth substance listed; conditions: 101 kPa, Liquid

CCCCO [butan-1-ol]
[1]
Conditions	speed of sound [m/s]	viscosity [mPa·s]
293.15 K	1262.4 ± 2.8	2.936 ± 0.066
298.15 K	1242.6 ± 2.7	2.542 ± 0.058
303.15 K	1224.6 ± 2.7	2.275 ± 0.052
308.15 K	1207.6 ± 2.7	1.998 ± 0.046
313.15 K	1189.2 ± 2.7	1.744 ± 0.041
318.15 K	1170 ± 2.6	1.571 ± 0.037

NC=O [formamide]
[1]
Conditions	speed of sound [m/s]	viscosity [mPa·s]
293.15 K	1615.8 ± 3.3	3.654 ± 0.081
298.15 K	1601 ± 3.3	3.322 ± 0.074
303.15 K	1589.2 ± 3.3	2.966 ± 0.067
308.15 K	1577.2 ± 3.3	2.653 ± 0.06
313.15 K	1565.1 ± 3.2	2.404 ± 0.055
318.15 K	1553.1 ± 3.2	2.219 ± 0.051

CC(O)CCO (stereo not drawn) [1,3-butanediol]
[1]
Conditions	speed of sound [m/s]	viscosity [mPa·s]
293.15 K	1539.6 ± 3.3	130.32 ± 11
298.15 K	1523.4 ± 3.2	97.26 ± 5.9
303.15 K	1506.3 ± 3.2	69.84 ± 2.3
308.15 K	1492.5 ± 3.2	52.54 ± 0.69
313.15 K	1480.8 ± 3.2	39.42 ± 0.95
318.15 K	1470.3 ± 3.2	30.51 ± 0.75

OCCCCO [1,4-butanediol] + NC=O
[2]
Conditions	speed of sound [m/s]	viscosity [mPa·s]
293.15 K, x2 = 0.1052	1606 ± 3.4	64.53 ± 1.2
293.15 K, x2 = 0.1988	1594.7 ± 3.3	44 ± 0.73
293.15 K, x2 = 0.3041	1585.7 ± 3.3	30.1 ± 0.51
293.15 K, x2 = 0.4002	1577.7 ± 3.3	21.2 ± 0.37
293.15 K, x2 = 0.5009	1572.5 ± 3.3	15.13 ± 0.27
293.15 K, x2 = 0.6022	1569.9 ± 3.3	11.33 ± 0.21
293.15 K, x2 = 0.6992	1574.7 ± 3.3	7.998 ± 0.16
293.15 K, x2 = 0.8051	1583.7 ± 3.3	5.512 ± 0.12
293.15 K, x2 = 0.905	1597.1 ± 3.3	4.026 ± 0.089
298.15 K, x2 = 0.1052	1592.6 ± 3.3	48.08 ± 0.8
298.15 K, x2 = 0.1988	1579.2 ± 3.3	31.14 ± 0.53
298.15 K, x2 = 0.3041	1568.5 ± 3.3	19.82 ± 0.35
298.15 K, x2 = 0.4002	1560.2 ± 3.3	12.5 ± 0.23
298.15 K, x2 = 0.5009	1553.9 ± 3.2	8.021 ± 0.16
298.15 K, x2 = 0.6022	1551.3 ± 3.2	6.233 ± 0.13
298.15 K, x2 = 0.6992	1556 ± 3.2	4.971 ± 0.11
298.15 K, x2 = 0.8051	1565.5 ± 3.2	3.96 ± 0.088
298.15 K, x2 = 0.905	1580.5 ± 3.3	3.372 ± 0.075
303.15 K, x2 = 0.1052	1580.1 ± 3.3	38.03 ± 0.64
303.15 K, x2 = 0.1988	1565.3 ± 3.3	24.03 ± 0.41
303.15 K, x2 = 0.3041	1553.4 ± 3.3	13.42 ± 0.24
303.15 K, x2 = 0.4002	1544.2 ± 3.2	7.715 ± 0.15
303.15 K, x2 = 0.5009	1537.7 ± 3.2	4.771 ± 0.11
303.15 K, x2 = 0.6022	1534.5 ± 3.2	3.722 ± 0.083
303.15 K, x2 = 0.6992	1539.5 ± 3.2	3.062 ± 0.069
303.15 K, x2 = 0.8051	1550 ± 3.2	2.658 ± 0.06
303.15 K, x2 = 0.905	1566.3 ± 3.2	2.754 ± 0.062
308.15 K, x2 = 0.1052	1568.8 ± 3.3	30.12 ± 0.51
308.15 K, x2 = 0.1988	1552 ± 3.3	18.56 ± 0.33
308.15 K, x2 = 0.3041	1539.2 ± 3.2	9.498 ± 0.18
308.15 K, x2 = 0.4002	1529.4 ± 3.2	4.663 ± 0.1
308.15 K, x2 = 0.5009	1522.1 ± 3.2	2.696 ± 0.062
308.15 K, x2 = 0.6022	1518.6 ± 3.2	2.188 ± 0.051
308.15 K, x2 = 0.6992	1524 ± 3.2	1.87 ± 0.044
308.15 K, x2 = 0.8051	1534.8 ± 3.2	1.924 ± 0.045
308.15 K, x2 = 0.905	1552.1 ± 3.2	2.366 ± 0.054
313.15 K, x2 = 0.1052	1558.4 ± 3.3	23.74 ± 0.41
313.15 K, x2 = 0.1988	1539.9 ± 3.2	13.81 ± 0.25
313.15 K, x2 = 0.3041	1525.4 ± 3.2	6.541 ± 0.14
313.15 K, x2 = 0.4002	1514.6 ± 3.2	2.871 ± 0.066
313.15 K, x2 = 0.5009	1506.5 ± 3.2	1.619 ± 0.038
313.15 K, x2 = 0.6022	1503 ± 3.2	1.272 ± 0.031
313.15 K, x2 = 0.6992	1508 ± 3.2	1.079 ± 0.027
313.15 K, x2 = 0.8051	1519.6 ± 3.2	1.525 ± 0.036
313.15 K, x2 = 0.905	1537.9 ± 3.2	1.998 ± 0.046
318.15 K, x2 = 0.1052	1546.2 ± 3.3	18.95 ± 0.33
318.15 K, x2 = 0.1988	1525.7 ± 3.2	10.75 ± 0.2
318.15 K, x2 = 0.3041	1510.2 ± 3.2	5.094 ± 0.11
318.15 K, x2 = 0.4002	1498.6 ± 3.2	2.024 ± 0.047
318.15 K, x2 = 0.5009	1490.6 ± 3.2	1.167 ± 0.029
318.15 K, x2 = 0.6022	1486.8 ± 3.1	1.003 ± 0.025
318.15 K, x2 = 0.6992	1491.7 ± 3.1	0.9823 ± 0.025
318.15 K, x2 = 0.8051	1503.8 ± 3.2	1.242 ± 0.03
318.15 K, x2 = 0.905	1524 ± 3.2	1.706 ± 0.04

OCCCCO [1,4-butanediol]
[1]
Conditions	speed of sound [m/s]	viscosity [mPa·s]
293.15 K	1616.4 ± 3.4	97.26 ± 4.5
298.15 K	1605.6 ± 3.4	72.75 ± 1.9
303.15 K	1595.9 ± 3.3	56.89 ± 0.56
308.15 K	1587.3 ± 3.3	44.88 ± 0.75
313.15 K	1579.8 ± 3.3	35.81 ± 0.6
318.15 K	1570.2 ± 3.3	29.05 ± 0.5

CCC(C)O (stereo not drawn) [butan-2-ol]
[1]
Conditions	speed of sound [m/s]	viscosity [mPa·s]
293.15 K	1232.6 ± 2.8	4.212 ± 0.43
298.15 K	1212.6 ± 2.7	3.034 ± 0.094
303.15 K	1194.6 ± 2.7	2.495 ± 0.076
308.15 K	1174.5 ± 2.7	2.106 ± 0.064
313.15 K	1155.9 ± 2.6	1.784 ± 0.055
318.15 K	1138.6 ± 2.6	1.524 ± 0.048
